{
  "source": "patent US20040126882A1",
  "about": "“Regulatable, catalytically active nucleic acids” (priority 2000, published 2004)",
  "key": {"3MeX2P6": {"tested_on": "3MeX2P6", "test": "Effector specificity of 3MeX2P6 in vitro and in vivo", "protocol": "In vitro splicing assays. The assays were preformed by heating the RNA (500 nM) in H2O to 70° C. for 3 min then transferring to ice for 1 min. […] GTP (50 μM) was added to the remaining reaction (5 μl total volume) to start the splicing reaction. The reaction was incubated at 37° C. for 30 min and then terminated with stop dye (5 μl). The reactions were heated to 70° C. for 3 min and 5 μl was analyzed on an 8% denaturing polyacrylamide gel. The gel was dried, exposed to a phosphor screen and analyzed using a Molecular Dynamics Phosphorimager (Sunnyvale, Calif.). In vivo growth curves."}, "Rev-dependent ligase": {"tested_on": "Rev-dependent ligase", "assay_type": "biochemical", "protocol": "Ligation assays. Ligation assays were performed as described hereinabove."}, "lysozyme [1]": {"molecular_target": "T1, lysozyme (Gallus gallus, UniProt P00698)", "test": "Competition assay, competitor RNA against lysozyme activation of lys11-2", "assay_type": "biochemical, hen", "settings": "3 μM competitor RNA, 2 μM lysozyme", "protocol": "Competition assays. Ligation assays were performed as described above, using 10 pmol of [^32P]-body-labeled ribozyme (cyt7-2 or lys11-2; […]) and 20 pmol effector oligonucleotide (2 μM). The denatured and annealed RNA mixture was combined with ligation buffer, 20 pmol protein (Cyt18, lysozyme, or water in the case of (−) protein samples; 2 μM), and 30 pmol of denatured and annealed competitor RNA (3 μM). Competitor RNAs are as follows:\nWhere N=(A, G, C, U), and tRNA (from Yeast; Gibco BRL, Gaithersburg, Md.). […] Cyt18 reactions were incubated 5 min at 25° C. and lysozyme reactions were incubated 10 min. Reactions were terminated by the addition of 45 μl of SDS/urea stop mix (75 mM EDTA, 80% formamide, saturated urea, saturated SDS, 0.05% bromophenol blue, 0.05% xylene cyanol) and analyzed on 8% polyacrylamide gels containing 0.1% SDS as above."}, "lysozyme [2]": {"molecular_target": "T1, lysozyme", "test": "Filter binding assay with lysozyme", "parameters": "species or system hen", "settings": "read-out: Kd of anti-lysozyme aptamer", "protocol": "Binding assays. Binding assays were performed in triplicate by combining I pmol of [^32P]-body-labeled RNA, 20 pmol 18.90a, and varying amounts of target protein (1 pmol to 5 nmol) in 50 μl of ligation buffer. After incubation at room temperature for 30 min, the mixture was drawn under vacuum through a series of nitrocellulose and nylon filters and washed with 150 μl of ligation buffer. The ratio of protein-bound RNA versus free RNA was determined by analyzing the counts retained on the nitrocellulose filter versus the counts on the nylon filter."}, "[3]": {"tested_on": "Cyt 18-dependent population", "test": "Specificity of activation of Cyt18-dependent ribozymes by proteins", "assay_type": "biochemical", "protocol": "(§1) Protein inactivation. Standard ligation assays were performed as described above, but in the presence of protein samples that had been pre-treated as follows. Cyt18 protein was denatured by heating for 10 min at 70° C. or by the addition of 6% SDS (0.7% SDS in ligation reaction). Lysozyme was heated 10 min at 100° C. or incubated 10 min at room temperature in the presence of 2 mM DTT (0.3 mM DTT final reaction) without inactivating the protein. The protein was successfully inactivated by heating for […] at 70° C. in the presence of 2 mM DTT. Ligation reactions were performed with 1.3 μM protein in 15 μl reactions incubated 5 min at 25° C."}, "[4]": {"tested_on": "lysozyme-dependent clones", "test": "Specificity of activation of lysozyme-dependent ribozymes by proteins", "assay_type": "biochemical", "settings": "lysozyme both reduced and denatured", "protocol": "as §1"}, "C600ThyA::Kan^R cells": {"tested_on": "C600ThyA::Kan^R cells", "protocol": "In vivo growth curves. Cells grown overnight in LB were diluted 1:100 in MM containing either theophylline, caffeine, 3-methylxanthine or no effector, and analyzed on a Microbiology Workstation Bioscreen C (Labsystems, Inc., Franklin, Mass.)."}},
  "data": [
    {"compound": "Cn1cnc2[nH]c(=O)[nH]c(=O)c21", "note": "[7-methylxanthine]", "values": [
      {"measurement": "responsiveness of 3MeX2P6 variants to effector", "setting": "3MeX2P6", "value": "nor were they responsive"}
    ]},
    {"compound": "Cn1c(=O)[nH]c2nc[nH]c2c1=O", "note": "[1-methylxanthine]", "values": [
      {"measurement": "responsiveness of 3MeX2P6 variants to effector", "setting": "3MeX2P6", "value": "nor were they responsive"}
    ]},
    {"compound": "N=C(N)NCCC[C@H](N)C(=O)O", "note": "[arginine]", "values": [
      {"measurement": "activation of the Rev-dependent ligase", "setting": "Rev-dependent ligase", "value": "Activation was observed only with HIV Tat peptide"}
    ]},
    {"compound": "Cn1c(=O)[nH]c(=O)c2[nH]cnc21", "note": "[3-methylxanthine]", "values": [
      {"measurement": "responsiveness of 3MeX2P6 variants to effector", "setting": "3MeX2P6", "value": "responsive"}
    ]},
    {"compound": "O=c1[nH]c(=O)c2[nH]cnc2[nH]1", "note": "[xanthine]", "values": [
      {"measurement": "responsiveness of 3MeX2P6 variants to effector", "setting": "3MeX2P6", "value": "nor were they responsive"}
    ]},
    {"compound": "cl: high affinity anti-lysozyme aptamer, SEQ ID NO:13 (GCGACTGGACATCACGAG; chemistry not given here)", "values": [
      {"measurement": "reduction of lysozyme activation of lys11-2 by competitor RNA", "setting": "lysozyme [1]", "value": "reduced activation to background levels"},
      {"measurement": "Kd", "setting": "lysozyme [2]", "value": 31, "unit": "nM"}
    ]},
    {"compound": "E. coli tryptophanyl tRNA synthetase: non-cognate protein", "values": [
      {"measurement": "activation of Cyt18-dependent ribozyme by non-cognate protein", "setting": "[3]", "value": "No activation"}
    ]},
    {"compound": "lysozyme: hen egg white lysozyme", "values": [
      {"measurement": "activation of Cyt18-dependent ribozyme by non-cognate protein", "setting": "[3]", "value": "No activation"},
      {"measurement": "activation of catalysis by inactivated lysozyme", "setting": "[4]", "value": "unable to activate"}
    ]},
    {"compound": "Cn1c(=O)c2[nH]cnc2n(C)c1=O", "note": "[theophylline]", "values": [
      {"measurement": "concentration causing a decrease in growth of cells containing the parental td intron (toxic to cells)", "setting": "C600ThyA::Kan^R cells; E. coli", "value": "greater than 0.5 mM"},
      {"measurement": "concentration that progressively decreases growth of cells with theophylline-dependent introns", "setting": "C600ThyA::Kan^R cells; E. coli", "value": "above 2 mM"},
      {"measurement": "responsiveness of 3MeX2P6 variants to effector", "setting": "3MeX2P6", "value": "no longer responsive"}
    ]},
    {"compound": "MS2 coat protein: non-cognate protein", "values": [
      {"measurement": "activation of Cyt18-dependent ribozyme by non-cognate protein", "setting": "[3]", "value": "No activation"}
    ]},
    {"compound": "Cn1c(=O)c2[nH]c(=O)[nH]c2n(C)c1=O", "note": "[1,3-dimethyl urilic acid]", "values": [
      {"measurement": "responsiveness of 3MeX2P6 variants to effector", "setting": "3MeX2P6", "value": "nor were they responsive"}
    ]},
    {"compound": "Cn1c(=O)c2c(ncn2C)n(C)c1=O", "note": "[caffeine]", "values": [
      {"measurement": "activation of growth of cells with td gene divided by Th2P6 by effector", "setting": "C600ThyA::Kan^R cells", "value": "not activated"},
      {"measurement": "responsiveness of 3MeX2P6 variants to effector", "setting": "3MeX2P6", "value": "nor were they responsive"}
    ]},
    {"compound": "O=c1[nH]cnc2nc[nH]c12", "note": "[hypoxanthine]", "values": [
      {"measurement": "responsiveness of 3MeX2P6 variants to effector", "setting": "3MeX2P6", "value": "nor were they responsive"}
    ]},
    {"compound": "Cn1cnc2c1c(=O)[nH]c(=O)n2C", "note": "[theobromine]", "values": [
      {"measurement": "responsiveness of 3MeX2P6 variants to effector", "setting": "3MeX2P6", "value": "nor were they responsive"}
    ]}
  ]
}
